Results on 17 molecules are retold here after the SangsterLogP compilation.

The data set is described as follows: method code SF-AS, from DOI: 10.1016/0223-5234(92)90053-4.
`CN(CCO)CCCC(=O)c1cccs1` displayed a lipophilicity (logP) of 3.29.

On to `CN(CCO)CCCC(=O)Cc1ccccc1`, for which the log partition coefficient (logP) was 3.07.

Take `O=C(CCCNCCO)Cc1ccccc1`: the logP was found to be 3.03. The logP values of the last two molecules are within 0.2 log units of each other.

In the case of `O=C(CCCNCCO)c1cccs1`, the lipophilicity (logP) is 2.89.

`NCCNCCCC(=O)c1cccs1` returned a logP of 2.58.

As for `CC(O)CNCCCC(=O)c1cccs1` (configuration not stated), the lipophilicity (logP) amounted to 2.73.

`CC(O)CNCCCC(=O)c1ccccc1` (configuration not stated) gave a logP of 3.28.

In turn, `NCCNCCCC(=O)c1ccccc1` came in with a logP of 2.74.

In turn, `CCc1ccccc1C(=O)CCCNCCO` gave a logP of 3.85.

Regarding `O=C(CCCNCCO)c1ccccc1`, the logP came out at 2.41.

Take `CCN(CC)CCCC(=O)c1ccccc1`: the lipophilicity (logP) worked out at 3.79.

In turn, `O=C(CCCNCCO)C1CCCCC1` had a logP of 3.96.

`Cc1ccsc1C(=O)CCCNCCO` returned a log partition coefficient (logP) of 3.

Take `Cc1cc(C)c(C(=O)CCCNCCO)c(C)c1`: the lipophilicity (logP) worked out at 3.16.

Molecule `Cc1ccccc1C(=O)CCCNCCO` showed a lipophilicity (logP) of 3.61.

`CC(O)CNCCCC(=O)Cc1ccccc1` (configuration not stated) gave a logP of 2.53.

Molecule `CN(CCO)CCCC(=O)c1ccccc1` came in with a logP of 2.4.

As a reminder, the logP is a log measure of how a compound divides between an organic and an aqueous phase. A high value points to a more lipophilic compound.
